Assay [1] is described as follows: In vitro anti-HIV activity in human peripheral blood mononuclear (PBM) cells acutely infected with HIV-1 LAI. Type of assay: functional.
The nature of assay [2]: In vitro cytotoxicity assessed by measuring [3H]-thymidine uptake in human peripheral blood mononuclear (PBM) cells. Type of assay: functional.

Bounds are passed on as bounds.

Experimental findings from ChEMBL document CHEMBL1159193, “Synthesis and in vitro anti-human immunodeficiency virus activity of artemisinin (qinghaosu)-related trioxanes” (Bioorg Med Chem Lett, 1994) are described below.

For the compound `COC(=O)c1ccc([C@H]2OOC3(CCC[C@@H](C)C3)[C@@H](OC)O2)cc1` (some centres undefined), in assay [1], the concentration giving a half-maximal response (EC50) (as a rule, the concentration at which the effect is half-maximal) was above 100 µM. In assay [2], the half-maximal inhibitory concentration (IC50) (commonly the concentration at which inhibition is half-maximal) was above 100 µM.
In the case of `CCCC[C@H]1O[C@@H]2O[C@]3(C)CC[C@H]4[C@H](C)CC[C@@H]([C@H]1C)[C@@]24OO3`, in assay [1], the EC50 amounted to 4.7 µM. The compound also showed an IC50 in assay [2] of 1.3 µM.
With `C[C@@H]1CC[C@H]2[C@@H](C)CCO[C@@H]3O[C@]4(C)CC[C@@H]1[C@]32OO4`, in assay [1], the EC50 amounted to 50.2 µM. For the same compound, the half-inhibitory concentration (IC50) in assay [2] is above 100 µM.
The corresponding values for `C[C@@H]1CC[C@H]2[C@@H](C)C(=O)O[C@@H]3O[C@@]4(C)CC[C@@H]1[C@]32OO4` [ARTEMISININ] are above 100 µM and above 100 µM.
On to `CCO[C@H]1O[C@@H]2O[C@@]3(C)CC[C@H]4[C@H](C)CC[C@@H]([C@H]1C)[C@@]24OO3` [ARTEMOTIL], for which the EC50 in assay [1] stood at 41.2 µM. In assay [2], this compound came in with an IC50 of 30.9 µM.
In assay [1], `C[C@@H]1CC[C@H]2[C@@H](C)CO[C@@H]3O[C@]4(C)CC[C@@H]1[C@]32OO4` [DEOXOARTEMISININ] had a 50% effective concentration (EC50) above 100 µM. In assay [2], this compound showed a 50% inhibitory concentration (IC50) above 100 µM.
Regarding `Cc1cn([C@H]2C[C@H](N=[N+]=[N-])[C@@H](CO)O2)c(=O)[nH]c1=O` [ZIDOVUDINE], in assay [1], it took 0.004 µM to reach a half-maximal effect (EC50). The half-maximal inhibitory concentration (IC50) in assay [2] is above 100 µM.
